The values that follow come from ChEMBL document CHEMBL3600358, “Design and synthesis of novel substituted naphthyridines as potential c-Met kinase inhibitors based on MK-2461” (Bioorg Med Chem Lett, 2015).

One series has as its system A549. The series can be described thus: Antiproliferative activity against human A549 cells incubated for 48 hrs by MTT assay. The note with it: A549, 48 h. In kind it is functional, cell-based.
The test system of series [1] is HeLa. The series can be described thus: Antiproliferative activity against human HeLa cells incubated for 48 hrs by MTT assay. Type of series: functional, cell-based. In general terms: Formazan colour is commonly taken as a measure of viable cells.
The test system of series [2] is HeLa. The series can be described thus: Effect on total c-Met protein level in human HeLa cells at 1.25 to 20 uM incubated for 24 hrs by Western blot method. Type of series: cell-based. For orientation: Immunoblotting shows a protein as a band on a membrane.

Regarding `Cn1cc(-c2cnc3ccc(N)nc3c2)cn1`, the concentration for half-maximal inhibition (IC50) with A549 and with HeLa [1] was > 50 µM in each case.

Take `CC(=O)Nc1ccc2ncc(-c3cnn(C)c3)cc2n1`: the IC50 with A549 and in the series on HeLa [1] was > 50 µM in each case.

Consider `Cn1cc(-c2cnc3ccc(NC(=O)C4CC4)nc3c2)cn1`, for which the IC50 with A549 and in the series on HeLa [1] was > 50 µM in each case.

As to `Cn1cc(-c2cnc3ccc(NC(=O)c4ccc(F)cc4)nc3c2)cn1`, the IC50 in the series on A549 and with HeLa [1] was > 50 µM each time.

In the case of `COc1ccc(C(=O)Nc2ccc3ncc(-c4cnn(C)c4)cc3n2)cc1`, the IC50 – broadly, the concentration needed to halve the response being measured – with A549 was determined as 6.4 µM; in the series with HeLa [1], 4.9 µM.

In the case of `Cn1cc(-c2cnc3ccc(NC(=O)c4cccnc4)nc3c2)cn1`, the half-inhibitory concentration (IC50) with A549 and with HeLa [1] was > 50 µM each time.

In the case of `CCNc1ccc2ncc(-c3cnn(C)c3)cc2n1`, the IC50 with A549 and in the series with HeLa [1] was > 50 µM in each case.

With `Cn1cc(-c2cnc3ccc(NCC4CC4)nc3c2)cn1`, the IC50 in the series with A549 and in the series on HeLa [1] was > 50 µM throughout.

In the case of `Cn1cc(-c2cnc3ccc(NCc4ccc(F)cc4)nc3c2)cn1`, the IC50 in the series on A549 was > 50 µM; with HeLa [1], 46.6 µM.

As to `COc1ccc(CNc2ccc3ncc(-c4cnn(C)c4)cc3n2)cc1`, the IC50 with A549 and with HeLa [1] was > 50 µM throughout.

With `Cn1cc(-c2cnc3ccc(NS(=O)(=O)c4ccc(C(F)(F)F)cc4)nc3c2)cn1`, the IC50 in the series with A549 and with HeLa [1] was > 50 µM each time.

For the compound `Cc1ccc(S(=O)(=O)Nc2ccc3ncc(-c4cnn(C)c4)cc3n2)cc1`, the IC50 in the series with A549 is 45.5 µM; in the series on HeLa [1], > 50 µM.

For `Cn1cc(-c2cnc3ccc(NS(=O)(=O)c4cccs4)nc3c2)cn1`, the results for the IC50 in the series on A549 and in the series on HeLa [1] were 39.5 µM and 38.4 µM, respectively.

On to `Cn1cc(-c2cnc3ccc(NS(=O)(=O)c4ccc(Cl)cc4Cl)nc3c2)cn1`, for which the IC50 in the series with A549 and in the series on HeLa [1] was > 50 µM each time.

Consider `Cn1cc(-c2cnc3ccnc(N)c3c2)cn1`, for which the IC50 in the series with A549 stood at 33.4 µM; in the series with HeLa [1], 40.8 µM.

Consider `CC(=O)Nc1nccc2ncc(-c3cnn(C)c3)cc12`, for which the IC50 with A549 and in the series with HeLa [1] was > 50 µM throughout.

For `Cn1cc(-c2cnc3ccnc(NC(=O)C4CC4)c3c2)cn1`, the IC50 in the series with A549 and in the series with HeLa [1] was > 50 µM throughout.

`Cn1cc(-c2cnc3ccnc(NC(=O)c4ccc(F)cc4)c3c2)cn1`: the IC50 in the series on A549 and with HeLa [1] was > 50 µM in each case.

Regarding `COc1ccc(C(=O)Nc2nccc3ncc(-c4cnn(C)c4)cc23)cc1`, the 50% inhibitory concentration (IC50) in the series with A549 and in the series on HeLa [1] was > 50 µM throughout.

For `Cn1cc(-c2cnc3ccnc(NC(=O)c4cccnc4)c3c2)cn1`, the IC50 with A549 and in the series with HeLa [1] was > 50 µM each time.

For `CCNc1nccc2ncc(-c3cnn(C)c3)cc12`, the IC50 was 40.7 µM with A549 and > 50 µM in the series on HeLa [1].

Regarding `Cn1cc(-c2cnc3ccnc(NCC4CC4)c3c2)cn1`, the IC50 in the series with A549 was 8.9 µM; in the series with HeLa [1] it was 7.4 µM.

Regarding `Cn1cc(-c2cnc3ccnc(NCc4ccc(F)cc4)c3c2)cn1`, the IC50 was found to be 5.2 µM with A549 and 9.2 µM in the series on HeLa [1]. Besides, in the series on HeLa [2], the Activity entry is listed as “Non-toxic”.

Take `COc1ccc(CNc2nccc3ncc(-c4cnn(C)c4)cc23)cc1`: the half-maximal inhibitory concentration (IC50) is > 50 µM with A549 and 42.2 µM in the series on HeLa [1].

As for `Cn1cc(-c2cnc3ccnc(NS(=O)(=O)c4ccc(C(F)(F)F)cc4)c3c2)cn1`, the IC50 in the series with A549 and in the series on HeLa [1] was > 50 µM in each case.

With `Cc1ccc(S(=O)(=O)Nc2nccc3ncc(-c4cnn(C)c4)cc23)cc1`, the IC50 in the series on A549 and with HeLa [1] was > 50 µM throughout.

On to `Cn1cc(-c2cnc3ccnc(NS(=O)(=O)c4cccs4)c3c2)cn1`, for which the IC50 with A549 was found to be 9.4 µM; with HeLa [1], 17.4 µM.

Consider `Cn1cc(-c2cnc3ccnc(NS(=O)(=O)c4c(Cl)cccc4Cl)c3c2)cn1`, for which the IC50 with A549 and in the series with HeLa [1] was > 50 µM throughout.
